One series deals with SARS-CoV-2. Format: cell-based.
The next series concerns Vero E6 cells. Particulars: parallel plates.

pIC50: −log10 of the molar value.

In the case of `Cc1nc2ccc(Br)cc2c(-c2ccc(Cl)cc2)c1C(OC(C)(C)C)C(=O)O` (centres unmarked) [ALLINI-2], in the series on SARS-CoV-2, the “effect on SARS-CoV-2 viral RNA in supernatants / replication (in words)” value was “modestly inhibited”. In the series on Vero E6 cells, the “compound cytotoxicity (in words)” value was “without apparent cytotoxicity”.

As usually defined, the pIC50 is the negative decadic logarithm of the IC50, by convention in mol/L. As for `CCOC(=O)[C@H]1O[C@@H]1C(=O)N[C@@H](CC(C)C)C(=O)NCCC(C)C` [E64D], in the series on SARS-CoV-2, the “effect on SARS-CoV-2 viral RNA in supernatants / replication (in words)” value is listed as “substantially decreased” and the “potency at 48 hpi compared with 24 hpi (in words)” value is given as “less potent”. Besides, in the series with SARS-CoV-2 (read-out: IC50, SARS-CoV-2 viral RNA in supernatants), the pIC50 was 5.48. Also, the “compound cytotoxicity (in words)” value in the series on Vero E6 cells is “minimal cytotoxicity”.

As for `CC(C)CN(C[C@@H](O)[C@H](Cc1ccccc1)NC(=O)O[C@H]1CCOC1)S(=O)(=O)c1ccc(N)cc1` [amprenavir], the “effect on SARS-CoV-2 viral RNA in supernatants / replication (in words)” value in the series with SARS-CoV-2 was “modestly inhibited”. Moreover, the “compound cytotoxicity (in words)” value in the series with Vero E6 cells was “without apparent cytotoxicity”.

For the molecule `Cc1cccc(/C=N/Nc2cc(N3CCOCC3)nc(OCCc3ccccn3)n2)c1` [apilimod], in the series on SARS-CoV-2, the “effect on SARS-CoV-2 viral RNA in supernatants / replication (in words)” value was “substantially decreased” and the “potency at 48 hpi compared with 24 hpi (in words)” value is “less potent”. Also, the “compound cytotoxicity (in words)” value with Vero E6 cells was “minimal cytotoxicity”.

As to `Cc1ccnc2c1NC(=O)c1cccnc1N2C1CC1` [nevirapine], the “effect on SARS-CoV-2 viral RNA in supernatants / replication (in words)” value in the series on SARS-CoV-2 is reported as “modestly inhibited”. Also, the “compound cytotoxicity (in words)” value with Vero E6 cells is recorded as “without apparent cytotoxicity”.

`CCC(CC)COC(=O)[C@H](C)N[P@](=O)(OC[C@H]1O[C@@](C#N)(c2ccc3c(N)ncnn23)[C@H](O)[C@@H]1O)Oc1ccccc1` [remdesivir]: the “effect on SARS-CoV-2 viral RNA in supernatants / replication (in words)” value with SARS-CoV-2 is given as “substantially decreased”.

Source of the values: article PMC7325174 (bioRxiv, 2020).
